What was measured:
MAO B = molecular target: T1, MAO B (Homo sapiens, UniProt P27338); test: reversibility of MAO B inhibition (reactivation by excess p-tyramine, with/without preincubation); assay type: biochemical; conditions: inhibitor at IC80
T1 sequence (P27338 1-520): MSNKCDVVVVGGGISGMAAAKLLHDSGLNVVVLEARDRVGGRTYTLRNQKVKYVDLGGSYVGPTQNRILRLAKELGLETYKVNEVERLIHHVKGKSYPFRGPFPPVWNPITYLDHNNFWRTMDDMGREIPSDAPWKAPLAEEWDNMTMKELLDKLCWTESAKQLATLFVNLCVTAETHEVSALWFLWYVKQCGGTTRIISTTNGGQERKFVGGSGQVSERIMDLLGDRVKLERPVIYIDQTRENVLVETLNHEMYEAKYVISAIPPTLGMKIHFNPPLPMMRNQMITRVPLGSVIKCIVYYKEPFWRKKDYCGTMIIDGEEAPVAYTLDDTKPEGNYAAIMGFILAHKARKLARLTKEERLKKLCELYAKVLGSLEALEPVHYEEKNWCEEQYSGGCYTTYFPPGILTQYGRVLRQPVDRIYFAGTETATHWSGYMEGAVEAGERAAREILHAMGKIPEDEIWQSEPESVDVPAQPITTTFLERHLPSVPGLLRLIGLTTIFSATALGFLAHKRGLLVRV
Procedure: The reversibility of the MAO inhibition was tested as described in [6, 7]. […] Two variants of experiment were performed. […] After 22 min, the concentration of the substrate was increased to 200 µM and the signal was measured for 5 h.

human MAO B (hMAO B) [1] = molecular target: T2, human MAO B (hMAO B) (Homo sapiens, UniProt P27338); test: fluorometric MAO assay (p-tyramine substrate); assay type: biochemical; conditions: fluorometric MAO assay; mean ± SEM of 2–4 independent experiments
T2 sequence (P27338 1-520): T1 sequence (P27338 1-520)
Procedure: The precise method was described in [6]. First, compounds 4–32 were screened for hMAO B inhibitory activity at 1 μM concentration by the fluorometric method. Para-tyramine (200 μM) was used as a substrate for the enzyme and safinamide (1 μM) was used as a reference compound. […] Each experiment was performed in duplicate.
All compounds were first screened for hMAO B inhibitory activity at the concentration of 1 μM. […] Based on the results, we selected compounds 9 and 13 for further analysis.

[2] = molecular target: human histamine H3 receptor (hH3R) (Homo sapiens, UniProt Q9Y5N1); test: [3H]Nα-methylhistamine radioligand binding assay in CHO-K1 cells stably expressing hH3R; set-up: expressed in transfected cells; host or cells: CHO-K1; conditions: CHO-K1 cells; [3H]Nα-methylhistamine; mean ± SEM of three independent experiments; read-out: hH3R Ki [nM] ± SEM
Chain of human histamine H3 receptor (hH3R) (Q9Y5N1 whole entry): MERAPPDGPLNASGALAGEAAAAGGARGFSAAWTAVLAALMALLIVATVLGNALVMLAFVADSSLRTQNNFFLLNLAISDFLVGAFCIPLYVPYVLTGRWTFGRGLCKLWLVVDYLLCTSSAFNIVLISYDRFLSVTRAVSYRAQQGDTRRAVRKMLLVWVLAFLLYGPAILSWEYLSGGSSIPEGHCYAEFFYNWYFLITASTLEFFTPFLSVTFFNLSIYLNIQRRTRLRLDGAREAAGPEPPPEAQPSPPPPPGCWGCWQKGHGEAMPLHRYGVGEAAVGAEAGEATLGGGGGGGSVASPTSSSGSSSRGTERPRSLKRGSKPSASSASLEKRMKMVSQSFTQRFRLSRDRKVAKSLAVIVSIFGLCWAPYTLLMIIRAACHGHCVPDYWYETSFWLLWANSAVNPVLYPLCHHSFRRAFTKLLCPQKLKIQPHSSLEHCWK
Procedure: Affinity to hH3R stably expressed in CHO-K1 [6] or HEK293 [11] cells was evaluated in a radioligand binding assay as described previously. Briefly, 10 mM stock solutions of the test compounds in DMSO were prepared. Each compound was tested at eight concentrations ranging from 10^−5 to 10^−12 M (final concentration). All assays were carried out in duplicate. […] The radioactivity was counted in MicroBeta 2 [6] or MicroBeta Trilux counter (PerkinElmer). Data were fitted to a one-site curve-fitting equation with Prism 6 (GraphPad Software, San Diego, CA, USA) and Ki values were calculated from IC50 values (from at least three experiments performed in duplicates) according to the Cheng−Prusoff equation [12].
Affinity for hH3R was evaluated in a radioligand binding assay using [^3H]N^α-methylhistamine as radioligand in CHO K1 or HEK293 cells stably expressing hH3R as described previously. […] Then, those with at least 50% inhibition for hH3R were selected for further testing (Ki evaluation). […] Compounds were tested in the binding assay in HEK293 cells.

human MAO B (hMAO B) [3] = molecular target: T2, human MAO B (hMAO B); test: modality of hMAO B inhibition (Michaelis-Menten / Lineweaver-Burk); assay type: biochemical
Procedure: Modality of hMAO B inhibition was evaluated for compounds 9 and 13 and the reference safinamide according to the method described previously. Three concentrations of inhibitors, corresponding to their IC20, IC50 and IC80 values, were used. Each experiment was performed in triplicate. KM and Vmax values were calculated from Michaelis–Menten curves by nonlinear regression from the substrate. Lineweaver–Burk plots were calculated using linear regression in GraphPad Prism 6.07 (GraphPad Software, San Diego, CA, USA).
For testing modality of enzyme inhibition, we used three concentrations of inhibitors that corresponded to their IC20, IC50 and IC80 values. Substrate (p-tyramine) was used at concentrations: 0.05, 0.1, 0.5, 1.0, 1.5 and 2.0 mM.

[4] = inhibitor at IC20, IC50, IC80, p-tyramine 0.05–2.0 mM

In the case of CC1CCCN1CCCOc1ccc(C(C)(C)C)cc1.O=C(O)C(=O)O (stereo not shown) [Compound 13, 1-(3-(4-(tert-Butyl)phenoxy)propyl)-2-methylpyrrolidine hydrogen oxalate], the “effect of 30 min preincubation on inhibition (preincubated vs non-preincubated)” value (MAO B) is reported as “did not show differences between the variants”, the “reversibility of MAO B inhibition” value (MAO B; excess p-tyramine 200 µM) is reported as “reversible inhibition” and the IC50 (human MAO B (hMAO B) [1]) is reported as 4 ± 0.3 nM. The Ki [2] was 25 ± 9 nM, the “Affinity (free enzyme vs enzyme-substrate complex)” value (human MAO B (hMAO B) [3]) was “Free enzyme ≈ enzyme-substrate complex” and the “Mode of inhibition from kinetic values and LB plot” value (human MAO B (hMAO B) [3]) was “noncompetitive inhibition”. For the same compound, the “Lines on LB plot” value (human MAO B (hMAO B) [3]; Lineweaver–Burk double-reciprocal plot) was “Lines intersect to the left of y-axis directly on x-axis”, the “app. KM” value (human MAO B (hMAO B) [3]; [4]) was “No effect ^a” and the “app. Vmax” value (human MAO B (hMAO B) [3]; [4]) was “↓ curvilinearly with ↑ [I]”. The “app. Vmax/app. KM” value (human MAO B (hMAO B) [3]; [4]) was “↓ curvilinearly with ↑ [I]”.
